In brackets after ≈: the same amount, converted by molar mass.

Usually solubility stands for the dissolved amount per volume that the medium holds. A low value points to a poorly soluble substance.

Series [1] concerns the target TLR4 (Homo sapiens, UniProt O00206+Q9Y6Y9). Briefly: TLR4 NF-κB SEAP reporter assay in HEK-Blue hTLR4 cells. Particulars: for TLR4 activation at 10 μM, fold increase / TLR4 activation at 100 μM, fold increase: 18 h, NF-κB transcriptional activity (SEAP) relative to 0.1% DMSO; for maximum TLR4 activation: HEK-Blue hTLR4, 21 at 10 μM; for concentration at which compound activated TLR4: dose-response 0.5–10 μM (17–21) or 1–100 μM (27–31).

Series [2] in a line: Kinetic solubility in PBS (HPLC solubility assay). Particulars: aqueous buffer, kinetic from dmso stock.
Series [3] deals with NOD2 (Homo sapiens, UniProt Q9HC29). Briefly: NOD2 NF-κB SEAP reporter assay in HEK-Blue hNOD2 cells. Particulars: for NOD2 activation at 10 μM, fold increase: 18 h, NF-κB transcriptional activity (SEAP) relative to 0.1% DMSO; for NOD2 agonist activity: compared with NOD2 agonist 3 and MDP (4 μM). In general terms: Reporter assays use an easily measured gene product as a stand-in for the process of interest.

[4] abbreviates: PBS, Average solubility, Tables S1–S3, average of two samples.
The mark [5] stands for this setting: PBS, Solubility sample 1, Tables S1–S3, replicate 1.
[6] abbreviates: PBS, Solubility sample 2, Tables S1–S3, replicate 2.
Setting [7] is: PBS, solubility in PBS, kinetic solubility, HPLC solubility assay.
Where [8] appears, read: Average solubility, Tables S1–S3, average of two samples.
Where [9] appears, read: Solubility sample 1, Tables S1–S3, replicate 1.
The mark [10] stands for this setting: Solubility sample 2, Tables S1–S3, replicate 2.
The mark [11] stands for this setting: solubility in PBS, kinetic solubility, HPLC solubility assay.

Chain of NOD2 (Q9HC29 whole entry): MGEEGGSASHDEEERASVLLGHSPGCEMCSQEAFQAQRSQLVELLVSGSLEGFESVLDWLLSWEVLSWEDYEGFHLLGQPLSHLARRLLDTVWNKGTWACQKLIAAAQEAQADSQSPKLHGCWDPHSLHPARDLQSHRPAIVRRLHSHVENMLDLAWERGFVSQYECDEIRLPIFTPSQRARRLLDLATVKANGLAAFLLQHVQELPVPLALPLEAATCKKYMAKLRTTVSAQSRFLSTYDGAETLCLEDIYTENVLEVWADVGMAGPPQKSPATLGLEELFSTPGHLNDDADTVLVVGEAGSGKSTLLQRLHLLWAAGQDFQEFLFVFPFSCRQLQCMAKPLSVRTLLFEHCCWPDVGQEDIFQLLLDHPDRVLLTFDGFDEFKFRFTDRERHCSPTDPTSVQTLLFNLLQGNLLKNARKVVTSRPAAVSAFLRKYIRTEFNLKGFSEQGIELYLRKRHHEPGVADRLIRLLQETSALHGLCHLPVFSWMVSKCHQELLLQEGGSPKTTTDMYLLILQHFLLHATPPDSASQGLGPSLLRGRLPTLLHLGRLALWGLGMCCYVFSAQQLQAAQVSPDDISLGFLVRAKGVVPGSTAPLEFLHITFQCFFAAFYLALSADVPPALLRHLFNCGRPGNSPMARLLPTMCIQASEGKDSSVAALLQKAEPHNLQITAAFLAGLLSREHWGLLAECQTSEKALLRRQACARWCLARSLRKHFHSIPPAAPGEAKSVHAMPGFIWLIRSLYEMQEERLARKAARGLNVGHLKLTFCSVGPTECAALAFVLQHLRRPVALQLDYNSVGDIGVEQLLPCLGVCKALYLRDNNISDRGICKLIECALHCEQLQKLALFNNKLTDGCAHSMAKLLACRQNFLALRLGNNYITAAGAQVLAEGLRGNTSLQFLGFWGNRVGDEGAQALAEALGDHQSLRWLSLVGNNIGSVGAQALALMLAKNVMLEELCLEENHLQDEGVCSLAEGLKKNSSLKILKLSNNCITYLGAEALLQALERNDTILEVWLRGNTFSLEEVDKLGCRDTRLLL
Chain of TLR4 (O00206 24-839): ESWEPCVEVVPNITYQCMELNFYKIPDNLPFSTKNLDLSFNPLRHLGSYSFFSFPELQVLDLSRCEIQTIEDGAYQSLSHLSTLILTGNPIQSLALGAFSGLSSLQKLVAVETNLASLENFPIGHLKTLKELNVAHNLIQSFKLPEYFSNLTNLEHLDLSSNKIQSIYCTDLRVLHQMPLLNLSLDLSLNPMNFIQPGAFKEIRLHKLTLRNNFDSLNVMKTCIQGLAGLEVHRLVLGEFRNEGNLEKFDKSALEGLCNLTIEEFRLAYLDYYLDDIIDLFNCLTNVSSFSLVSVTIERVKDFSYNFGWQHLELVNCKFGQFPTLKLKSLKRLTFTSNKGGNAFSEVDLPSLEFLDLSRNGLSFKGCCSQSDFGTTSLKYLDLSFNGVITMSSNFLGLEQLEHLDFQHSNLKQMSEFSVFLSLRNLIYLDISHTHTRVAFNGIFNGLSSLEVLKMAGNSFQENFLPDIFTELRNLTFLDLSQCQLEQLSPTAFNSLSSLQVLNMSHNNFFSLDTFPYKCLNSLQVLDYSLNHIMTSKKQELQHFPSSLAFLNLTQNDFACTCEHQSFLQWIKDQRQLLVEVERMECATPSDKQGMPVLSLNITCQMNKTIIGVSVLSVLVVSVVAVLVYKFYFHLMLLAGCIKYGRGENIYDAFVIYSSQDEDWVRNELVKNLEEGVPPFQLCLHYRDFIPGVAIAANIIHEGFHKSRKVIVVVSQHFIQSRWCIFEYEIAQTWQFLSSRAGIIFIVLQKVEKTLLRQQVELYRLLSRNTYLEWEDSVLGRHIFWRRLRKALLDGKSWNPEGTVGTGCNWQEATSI
Chain of TLR4 (Q9Y6Y9 17-160 limits assumed): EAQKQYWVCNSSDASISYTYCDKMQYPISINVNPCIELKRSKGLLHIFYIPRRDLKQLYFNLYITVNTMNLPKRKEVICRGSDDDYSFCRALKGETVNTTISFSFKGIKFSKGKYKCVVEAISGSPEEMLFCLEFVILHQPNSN

Regarding `O=C(O)Cc1ccc(C(C(=O)NC2CCCC2)N(C(=O)c2cc(-c3ccccc3)n(-c3ccccc3)n2)c2ccc3c(c2)CCC3)cc1` (stereo not shown) [Compound 4, reference compound], the “TLR4 activation at 10 μM, fold increase” value in series [1] (10 μM) came to 7.23 fold increase. Also, the “maximum TLR4 activation” value in series [1] is listed as 7.23 fold. Also, the solubility in series [2] (setting [4]) was found to be 238 µM (≈ 152 µg/mL); in series [2] (setting [5]), 249 µM (≈ 159 µg/mL); in series [2] (setting [6]) it was 226 µM (≈ 145 µg/mL); in series [2] (setting [7]) it was 238 µM (≈ 152 µg/mL).

As to `O=C(O)CSc1nc2c([nH]c3ccccc32)c(=O)n1-c1ccccc1` [Compound 6, reference compound], the “TLR4 activation at 10 μM, fold increase” value in series [1] (10 μM) stood at 1.22 fold increase. For the same compound, the “TLR4 activation at 100 μM, fold increase” value in series [1] is reported as 3.10 fold increase. For the same compound, in series [1], the “maximum TLR4 activation” value was determined as 3.10 fold. The solubility in series [2] (setting [4]) amounted to 254 µM (≈ 89.3 µg/mL); in series [2] (setting [5]), 270 µM (≈ 94.8 µg/mL); in series [2] (setting [6]) it was 238 µM (≈ 83.7 µg/mL); in series [2] (setting [7]), 254 µM (≈ 89.3 µg/mL).

In the case of `CCOC(=O)[C@H](CCC(=O)NCCNC(=O)Cc1ccc(C(C(=O)NC2CCCC2)N(C(=O)c2cc(-c3ccccc3)n(-c3ccccc3)n2)c2ccc3c(c2)CCC3)cc1)NC(=O)[C@@H](NC(=O)CNC(=O)/C=C/c1ccc(O)c(OC)c1)C(C)C` (stereo partly drawn) [Compound 17, Ethyl N ^5-(2-(2-(4-(2-(Cyclopentylamino)-1-(N-(2,3-dihydro-1H-inden-5-yl)-1,5-diphenyl-1H-pyrazole-3-carboxamido)-2-oxoethyl)phenyl)acetamido)ethyl)-N ^2-((E)-3-(4-hydroxy-3-methoxyphenyl)acryloyl)glycyl-L-valyl-D-glutaminate], in series [1] (10 μM), the “TLR4 activation at 10 μM, fold increase” value was determined as 5.10 fold increase. In series [1], the “concentration at which compound activated TLR4” value (“concentration” for short) was 1.0 µM. Further, the “NOD2 activation at 10 μM, fold increase” value in series [3] was determined as 3.66 fold increase. Also, the “NOD2 agonist activity” value in series [3] was “comparable efficiency to MDP”. Further, the solubility stood at 0.68 µM (≈ 0.796 µg/mL) in series [2] (setting [5]), 0.83 µM (≈ 0.971 µg/mL) in series [2] (setting [6]) and 0.76 µM (≈ 0.889 µg/mL) in series [2] (setting [7]).

In the case of `CCOC(=O)[C@H](CCC(=O)NCCCCCCNC(=O)Cc1ccc(C(C(=O)NC2CCCC2)N(C(=O)c2cc(-c3ccccc3)n(-c3ccccc3)n2)c2ccc3c(c2)CCC3)cc1)NC(=O)[C@@H](NC(=O)CNC(=O)/C=C/c1ccc(O)c(OC)c1)C(C)C` (stereo partly drawn) [Compound 18, Ethyl N ^5-(6-(2-(4-(2-(Cyclopentylamino)-1-(N-(2,3-dihydro-1H-inden-5-yl)-1,5-diphenyl-1H-pyrazole-3-carboxamido)-2-oxoethyl)phenyl)acetamido)hexyl)-N ^2-((E)-3-(4-hydroxy-3-methoxyphenyl)acryloyl)glycyl-L-valyl-D-glutaminate], the “TLR4 agonism” value in series [1] (10 μM) is listed as “weak TLR4 agonism”. The “TLR4 activation at 10 μM, fold increase” value in series [1] (10 μM) came to 1.46 fold increase. For the same compound, the “NOD2 activation at 10 μM, fold increase” value in series [3] was 2.43 fold increase. In addition, the solubility in series [2] (setting [5]) is 0.85 µM (≈ 1.04 µg/mL); in series [2] (setting [6]), 1.17 µM (≈ 1.43 µg/mL); in series [2] (setting [7]), 1.01 µM (≈ 1.24 µg/mL).

As for `CCOC(=O)[C@H](CCC(=O)NCCOCCOCCNC(=O)Cc1ccc(C(C(=O)NC2CCCC2)N(C(=O)c2cc(-c3ccccc3)n(-c3ccccc3)n2)c2ccc3c(c2)CCC3)cc1)NC(=O)[C@H](NC(=O)CNC(=O)/C=C/c1ccc(O)c(OC)c1)C(C)C` (stereo partly drawn) [Compound 19, Ethyl (16S)-1-(4-(2-(Cyclopentylamino)-1-(N-(2,3-dihydro-1H-inden-5-yl)-1,5-diphenyl-1H-pyrazole-3-carboxamido)-2-oxoethyl)phenyl)-16-((R)-2-(2-((E)-3-(4-hydroxy-3-methoxyphenyl)acrylamido)acetamido)-3-methylbutanamido)-2,13-dioxo-6,9-dioxa-3,12-diazaheptadecan-17-oate], the “TLR4 activation at 10 μM, fold increase” value in series [1] (10 μM) is reported as 2.78 fold increase. Further, the “concentration” value in series [1] was 5 µM. Moreover, the “NOD2 activation at 10 μM, fold increase” value in series [3] is 3.06 fold increase. Further, the solubility in series [2] (setting [5]) amounted to 2.59 µM (≈ 3.26 µg/mL); in series [2] (setting [6]), 1.68 µM (≈ 2.11 µg/mL); in series [2] (setting [7]), 2.14 µM (≈ 2.69 µg/mL).

For `CCOC(=O)[C@@H](CCC(=O)NCCCOCCOCCOCCCNC(=O)Cc1ccc(C(C(=O)NC2CCCC2)N(C(=O)c2cc(-c3ccccc3)n(-c3ccccc3)n2)c2ccc3c(c2)CCC3)cc1)NC(=O)[C@@H](NC(=O)CNC(=O)/C=C/c1ccc(O)c(OC)c1)C(C)C` (stereo partly drawn) [Compound 20, Ethyl (21R)-1-(4-(2-(Cyclopentylamino)-1-(N-(2,3-dihydro-1H-inden-5-yl)-1,5-diphenyl-1H-pyrazole-3-carboxamido)-2-oxoethyl)phenyl)-21-((S)-2-(2-((E)-3-(4-hydroxy-3-methoxyphenyl)acrylamido)acetamido)-3-methylbutanamido)-2,18-dioxo-7,10,13-trioxa-3,17-diazadocosan-22-oate], in series [1] (10 μM), the “TLR4 activation at 10 μM, fold increase” value was found to be 2.68 fold increase. For the same compound, the “concentration” value in series [1] was 5 µM. For the same compound, in series [3], the “NOD2 activation at 10 μM, fold increase” value is given as 3.53 fold increase. Further, the “NOD2 agonist activity” value in series [3] was “comparable efficiency to MDP”. Further, the results for the solubility in series [2] (setting [5]), in series [2] (setting [6]) and in series [2] (setting [7]) were 1.61 µM (≈ 2.14 µg/mL), 1.38 µM (≈ 1.84 µg/mL) and 1.5 µM (≈ 2 µg/mL), respectively.

Regarding `CCOC(=O)[C@H](CCC(=O)NCCNC(=O)CSc1nc2c([nH]c3ccccc32)c(=O)n1-c1ccccc1)NC(=O)[C@H](NC(=O)CNC(=O)/C=C/c1ccc(O)c(OC)c1)C(C)C` [Compound 27, Ethyl N ^2-((E)-3-(4-Hydroxy-3-methoxyphenyl)acryloyl)glycyl-D-valyl-N ^5-(2-(2-((4-oxo-3-phenyl-4,5-dihydro-3H-pyrimido[5,4-b]indol-2-yl)thio)acetamido)ethyl)-L-glutaminate], the “TLR4 activation at 10 μM, fold increase” value in series [1] (10 μM) is recorded as 1.06 fold increase. Besides, the “TLR4 activation at 100 μM, fold increase” value in series [1] is recorded as 2.60 fold increase. Further, the “NOD2 activation at 10 μM, fold increase” value in series [3] is reported as 2.17 fold increase. Moreover, the solubility in series [2] (setting [8]) amounted to 310 µM (≈ 274 µg/mL); in series [2] (setting [9]), 322 µM (≈ 284 µg/mL); in series [2] (setting [10]), 298 µM (≈ 264 µg/mL); in series [2] (setting [11]), 310 µM (≈ 274 µg/mL).

`CCOC(=O)[C@H](CCC(=O)NCCCCCCNC(=O)CSc1nc2c([nH]c3ccccc32)c(=O)n1-c1ccccc1)NC(=O)[C@H](NC(=O)CNC(=O)/C=C/c1ccc(O)c(OC)c1)C(C)C` [Compound 28, Ethyl N ^2-((E)-3-(4-Hydroxy-3-methoxyphenyl)acryloyl)glycyl-D-valyl-N ^5-(6-(2-((4-oxo-3-phenyl-4,5-dihydro-3H-pyrimido[5,4-b]indol-2-yl)thio)acetamido)hexyl)-L-glutaminate]: the “TLR4 activation at 10 μM, fold increase” value in series [1] (10 μM) stood at 1.06 fold increase. The “TLR4 activation at 100 μM, fold increase” value in series [1] is recorded as 1.72 fold increase. In addition, the “NOD2 activation at 10 μM, fold increase” value in series [3] is on record as 1.65 fold increase. Besides, the solubility in series [2] (setting [8]) was 80 µM (≈ 75.1 µg/mL); in series [2] (setting [9]), 115 µM (≈ 108 µg/mL); in series [2] (setting [10]), 80.7 µM (≈ 75.8 µg/mL); in series [2] (setting [11]), 80 µM (≈ 75.1 µg/mL).

With `CCOC(=O)[C@H](CCC(=O)NCCOCCOCCNC(=O)CSc1nc2c([nH]c3ccccc32)c(=O)n1-c1ccccc1)NC(=O)[C@H](NC(=O)CNC(=O)/C=C/c1ccc(O)c(OC)c1)C(C)C` [Compound 29, Ethyl (S)-16-((R)-2-(2-((E)-3-(4-Hydroxy-3-methoxyphenyl)acrylamido)acetamido)-3-methylbutanamido)-2,13-dioxo-1-((4-oxo-3-phenyl-4,5-dihydro-3H-pyrimido[5,4-b]indol-2-yl)thio)-6,9-dioxa-3,12-diazaheptadecan-17-oate], in series [1] (10 μM), the “TLR4 activation at 10 μM, fold increase” value amounted to 1.00 fold increase. In series [1], the “TLR4 activation at 100 μM, fold increase” value is 1.43 fold increase. In addition, the “NOD2 activation at 10 μM, fold increase” value in series [3] was 1.60 fold increase. Also, the solubility was found to be 238 µM (≈ 231 µg/mL) in series [2] (setting [8]), 232 µM (≈ 225 µg/mL) in series [2] (setting [9]), 244 µM (≈ 237 µg/mL) in series [2] (setting [10]) and 238 µM (≈ 231 µg/mL) in series [2] (setting [11]).

`CCOC(=O)[C@@H](CCC(=O)NCCCOCCOCCOCCCNC(=O)CSc1nc2c([nH]c3ccccc32)c(=O)n1-c1ccccc1)NC(=O)[C@@H](NC(=O)CNC(=O)/C=C/c1ccc(O)c(OC)c1)C(C)C` [Compound 30, Ethyl (R)-21-((S)-2-(2-((E)-3-(4-Hydroxy-3-methoxyphenyl)acrylamido)acetamido)-3-methylbutanamido)-2,18-dioxo-1-((4-oxo-3-phenyl-4,5-dihydro-3H-pyrimido[5,4-b]indol-2-yl)thio)-7,10,13-trioxa-3,17-diazadocosan-22-oate]: in series [1] (10 μM), the “TLR4 activation at 10 μM, fold increase” value came out at 1.05 fold increase. Moreover, in series [1], the “TLR4 activation at 100 μM, fold increase” value was 1.36 fold increase. The “NOD2 activation at 10 μM, fold increase” value in series [3] turned out to be 1.55 fold increase. Further, the solubility in series [2] (setting [8]) is 122 µM (≈ 128 µg/mL); in series [2] (setting [9]), 124 µM (≈ 129 µg/mL); in series [2] (setting [10]), 121 µM (≈ 126 µg/mL); in series [2] (setting [11]), 122 µM (≈ 128 µg/mL).

Consider `CCOC(=O)[C@H](CCC(=O)N1CCC(CN2CCN(C(=O)CSc3nc4c([nH]c5ccccc54)c(=O)n3-c3ccccc3)CC2)CC1)NC(=O)[C@H](NC(=O)CNC(=O)/C=C/c1ccc(O)c(OC)c1)C(C)C` [Compound 31, Ethyl (S)-2-((R)-2-(2-((E)-3-(4-Hydroxy-3-methoxyphenyl)acrylamido)acetamido)-3-methylbutanamido)-5-oxo-5-(4-((4-(2-((4-oxo-3-phenyl-4,5-dihydro-3H-pyrimido[5,4-b]indol-2-yl)thio)acetyl)piperazin-1-yl)methyl)piperidin-1-yl)pentanoate], for which the “TLR4 activation at 10 μM, fold increase” value in series [1] (10 μM) is recorded as 1.05 fold increase. Also, in series [1], the “TLR4 activation at 100 μM, fold increase” value turned out to be 2.26 fold increase. Besides, the “NOD2 activation at 10 μM, fold increase” value in series [3] is listed as 3.33 fold increase. Also, the solubility in series [2] (setting [9]) turned out to be 7.22 µM (≈ 7.26 µg/mL); in series [2] (setting [10]) it was 6.15 µM (≈ 6.19 µg/mL); in series [2] (setting [11]), 6.68 µM (≈ 6.72 µg/mL).

The values are drawn from publication PMC12409580, “Modulating Receptor Activity, Immune Response, and Kinetic Solubility: The Impact of Linker Chemistry in Conjugated NOD2/TLR4 Agonists” (ACS Omega, 2025).
